In patent US10294229B2, “Heteroaryl substituted aminopyridine compounds” (BRISTOL-MYERS SQUIBB COMPANY, priority 2015, dated 2019):
pEC50, pIC50: −log10 of the molar value.

Key:
[1] = molecular target: IRAK4 (Homo sapiens (Human), UniProt Q9NWZ3); assay: IRAK4 Inhibition Assay; format: biochemical; settings: ATP 500 μM; IRAK4 0.6 nM
Summary of the method: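 Mobility-shift kinase assay: 0.6 nM IRAK4, 500 μM ATP, 1.5 μM fluorescent peptide, 60 min, room temperature. Percent inhibition was normalised between enzyme-free and DMSO-only wells.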

[2] = system: Human whole blood stimulated with a TLR2 agonist (lipoteichoic acid), IL-6 levels; assay: IRAK4 Whole Blood Assay; format: cell-based; settings: Homo sapiens, lipoteichoic acid 10 μg/mL
Procedure: Human whole blood containing the anti-coagulant ACD-A was plated in 384-well plate (25 μL/well) and incubated with compounds for 60 minutes at 37° C. in a 5% CO2 incubator. The blood was stimulated with a TLR2 agonist, 10 μg/mL final concentration of lipoteichoic acid (Invivogen, San Diego, Calif.) in 25 μL RPMI (Gibco) for 5 hours in a 5% CO2 incubator. At the end of the incubation, plates were centrifuged at 2300 rpm for 5 minutes. Supernatants were harvested and analyzed for IL-6 levels by Flow Cytometry beads assay (BD Biosciences, San Jose, Calif.).

Sequence of IRAK4 (Q9NWZ3 whole entry, species assumed): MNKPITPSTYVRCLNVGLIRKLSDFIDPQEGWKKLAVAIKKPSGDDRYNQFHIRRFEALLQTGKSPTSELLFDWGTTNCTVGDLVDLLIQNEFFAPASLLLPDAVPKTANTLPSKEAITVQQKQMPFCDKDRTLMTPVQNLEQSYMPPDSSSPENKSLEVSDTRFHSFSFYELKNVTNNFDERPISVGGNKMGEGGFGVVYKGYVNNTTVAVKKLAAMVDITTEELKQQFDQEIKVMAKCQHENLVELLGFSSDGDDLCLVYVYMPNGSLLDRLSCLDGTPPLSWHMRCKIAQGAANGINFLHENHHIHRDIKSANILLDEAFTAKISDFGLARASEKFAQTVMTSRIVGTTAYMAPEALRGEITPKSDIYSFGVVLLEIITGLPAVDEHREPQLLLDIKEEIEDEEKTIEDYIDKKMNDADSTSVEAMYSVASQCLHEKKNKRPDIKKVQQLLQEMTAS

Row | Compound | pIC50 [1] | pEC50 [2]
1 | CC(C)Nc1cc(-n2ncc3cc(C#N)cnc32)ncc1-c1cn(C[C@@H](O)c2ccccc2)nn1 [Example 84, (S)-1-(5-(1-(2-hydroxy-2-phenylethyl)-1H-1,2,3-triazol-4-yl)-4-(isopropylamino)pyridin-2-yl)-1H-pyrazolo[3,4-b]pyridine-5-carbonitrile] | 8.30 | 6.28
2 | CC(C)Nc1cc(-n2ncc3cc(C#N)cnc32)ncc1-c1cn(CCN(C)C)nn1 [Example 126, 1-(5-(1-(2-(dimethylamino)ethyl)-1H-1,2,3-triazol-4-yl)-4-(isopropylamino)pyridin-2-yl)-1H-pyrazolo[3,4-b]pyridine-5-carbonitrile] | 8.40 | 6.41
3 | CC(C)Nc1cc(-n2ncc3cc(C#N)cnc32)ncc1-c1cn([C@H]2CCN(C(=O)OC(C)(C)C)C[C@H]2O)nn1 [Example 176, (3R,4S)-tert-butyl 4-(4-(6-(5-cyano-1H-pyrazolo[3,4-b]pyridin-1-yl)-4-(isopropylamino)pyridin-3-yl)-1H-1,2,3-triazol-1-yl)-3-hydroxypiperidine-1-carboxylate] | 7.89 | 5.68
4 | CC(O)Cc1cn(-c2cnc(-n3ncc4cc(C#N)cnc43)cc2NC(C)C)nn1 (single isomer, unassigned) [Example 265, 1-(5-(4-(2-hydroxypropyl)-1H-1,2,3-triazol-1-yl)-4-(isopropylamino)pyridin-2-yl)-1H-pyrazolo[3,4-b]pyridine-5-carbonitrile] | 8.30 | 6.39
5 | CC(C)Nc1cc(-n2cnc3cc(C#N)cnc32)ncc1-c1cn(CCc2ccccc2)nn1 [Example 57, 3-(4-(isopropylamino)-5-(1-phenethyl-1H-1,2,3-triazol-4-yl)pyridin-2-yl)-3H-imidazo[4,5-b]pyridine-6-carbonitrile] | 8.52 | 6.21
6 | CC(C)Nc1cc(-n2ncc3cc(C#N)cnc32)ncc1-c1cc(C2CCOCC2)no1 [Example 418, 1-(4-(isopropylamino)-5-(3-(tetrahydro-2H-pyran-4-yl)isoxazol-5-yl)pyridin-2-yl)-1H-pyrazolo[3,4-b]pyridine-5-carbonitrile] | 8.52 | 6.31
7 | CC(C)Nc1cc(-n2ncc3cc(C#N)cnc32)ncc1-c1cn(CCCc2ccccc2)nn1 [Example 130, 1-(4-(isopropylamino)-5-(1-(3-phenylpropyl)-1H-1,2,3-triazol-4-yl)pyridin-2-yl)-1H-pyrazolo[3,4-b]pyridine-5-carbonitrile] | 8.30 | 4.97
8 | CC(C)Nc1cc(-n2ncc3cc(C#N)cnc32)ncc1-c1cc(CCC(C)(C)O)on1 [Example 429, 1-(5-(5-(3-hydroxy-3-methylbutyl)isoxazol-3-yl)-4-(isopropylamino)pyridin-2-yl)-1H-pyrazolo[3,4-b]pyridine-5-carbonitrile] | 8.70 | 6.35
9 | CCN1CC(n2cc(-c3cnc(-n4ncc5cc(C#N)cnc54)cc3NC(C)C)nn2)C1 [Example 149, 1-(5-(1-(1-ethylazetidin-3-yl)-1H-1,2,3-triazol-4-yl)-4-(isopropylamino)pyridin-2-yl)-1H-pyrazolo[3,4-b]pyridine-5-carbonitrile] | 8.70 | 6.14
10 | CC(C)Nc1cc(-n2ncc3cc(C#N)cnc32)ncc1-c1cc([C@@H]2CCCCN2S(C)(=O)=O)on1 [Example 432, (S)-1-(4-(isopropylamino)-5-(5-(1-(methylsulfonyl)piperidin-2-yl)isoxazol-3-yl)pyridin-2-yl)-1H-pyrazolo[3,4-b]pyridine-5-carbonitrile] | 9.00 | 6.43
11 | CC(C)Nc1cc(-n2ncc3cc(C#N)cnc32)ncc1-c1cn(C2CCCCC2)nn1 [Example 17, 1-(5-(1-cyclohexyl-1H-1,2,3-triazol-4-yl)-4-(isopropylamino)pyridin-2-yl)-1H-pyrazolo[3,4-b]pyridine-5-carbonitrile] | 8.30 | 5.71
